Experimental data published in article PMC10712727, “Safety, Tolerability, and Pharmacokinetics of Senaparib, a Novel PARP1/2 Inhibitor, in Chinese Patients With Advanced Solid Tumors: A Phase I Trial” (The Oncologist, 2023).

Test system: patients with advanced solid tumors
Assay: Safety: treatment-emergent and senaparib-related adverse events graded per NCI CTCAE v4.03
Type: in vivo
Details: TEAE
Experimental: This phase I, open-label, multicenter, dose-escalation, and dose-expansion study was conducted at three national clinical institutions in China. […] At baseline, all patients enrolled in the dose-escalation phase had to have at least one evaluable lesion, and those in the dose-expansion period had to have at least one measurable lesion, according to Response Evaluation Criteria in Solid Tumors version 1.1 (RECIST v1.1).[16] Entry to the dose-expansion cohort required the presence of a BRCA mutation, with the exception of patients with ovarian carcinoma, fallopian tube carcinoma, and primary peritoneal carcinoma. Full study eligibility criteria are provided in Supplementary Table S1.
Dose escalation was conducted using a modified Fibonacci 3 + 3 method (Supplementary Fig. S1).[17] Patients were administered oral senaparib from a planned starting dose of 2 mg once daily (QD), with preliminary dose escalation to 120 mg via nine dose groups, in order of their entry into the study. At a given dose level, each patient received a single dose of senaparib followed by a 7-day washout period. They then entered a continuous dosing period to confirm the safety and PK profile, in which they received senaparib QD from day 1 to day 21 of each 3-week cycle. Progression to the next higher dose required approval from the Data Safety Monitoring Committee (DSMC) upon review of the safety and PK data of the previous dose. A 50-mg twice-daily (BID) dosing group was added (planned enrollment, n = 6 patients) based on a DSMC review of the safety, PK, and efficacy analysis of the completed QD dose groups in the phase I clinical trial of senaparib dose escalation in Australia (NCT03507543), which commenced prior to the start of this trial.
The dose-expansion period included 3 populations: dose groups in which at least one patient achieved complete response (CR) or partial response (PR) per RECIST v1.1[16] and 1 dose group higher (evaluated for safety), as well as the dose group at the maximum tolerated dose (MTD)/recommended phase II dose (RP2D). Each of these groups included those patients in the respective dose-escalation group plus a planned additional 10 patients (approximately 20 patients in the MTD/RP2D group) with BRCA^mut+ solid tumors (ovarian, breast, or prostate cancer were preferred, and ovarian cancer could be BRCA wild type). Patients received senaparib monotherapy orally QD or BID (50-mg dose only) over each 3-week cycle until disease progression or unacceptable toxicity.
DLTs were predefined toxicities (Supplementary Table S2) recorded over the 7 days following the single-dose administration of senaparib and during the first treatment cycle (day 1-day 21) for each dose group in the dose-escalation period only. The MTD was defined as the maximum dose at which ≤1/6 patients experienced a DLT. Senaparib PK parameters were derived from blood samples collected from patients after the single administration, and at regular intervals during the first cycle of the dose-escalation and dose-expansion periods. Plasma concentrations of senaparib were determined using high-performance liquid chromatography-tandem mass spectrometry. Tumor response was assessed every 6 weeks per RECIST v1.1,[16] recording objective response rate (ORR), disease control rate (DCR), duration of response (DOR), and progression-free survival (PFS) by dose level for all patients and for those harboring BRCA^mut+ tumors.

In the case of `O=C(c1cc(Cn2c(=O)[nH]c(=O)c3c(F)cccc32)ccc1F)N1CCN(c2ncccn2)CC1` [Senaparib], the “Asthenia, Gr≥3” value (60 mg QD n = 5) is reported as 0 n (%), the “Blood bilirubin increased, All” value (60 mg QD n = 5) is reported as 0 n (%) and the “Blood bilirubin increased, Gr≥3” value (60 mg QD n = 5) is reported as 0 n (%). The “Blood creatinine increased, All” value (60 mg QD n = 5) was 1 (20.0) n (%), the “Blood creatinine increased, Gr≥3” value (60 mg QD n = 5) was 0 n (%) and the “Hypokalemia, All” value (60 mg QD n = 5) was 1 (20.0) n (%). The “Hypokalemia, Gr≥3” value (60 mg QD n = 5) was 0 n (%), the “Hyponatremia, All” value (60 mg QD n = 5) was 1 (20.0) n (%) and the “Hyponatremia, Gr≥3” value (60 mg QD n = 5) was 0 n (%). The “Nausea, All” value (60 mg QD n = 5) was 1 (20.0) n (%), the “Nausea, Gr≥3” value (60 mg QD n = 5) was 0 n (%) and the “Neutrophil count decreased, All” value (60 mg QD n = 5) was 1 (20.0) n (%). For the same compound, the “Neutrophil count decreased, Gr≥3” value (60 mg QD n = 5) was 0 n (%), the “Pain in extremity, All” value (60 mg QD n = 5) was 0 n (%) and the “Pain in extremity, Gr≥3” value (60 mg QD n = 5) was 0 n (%). For the same compound, the “Platelet count decreased, All” value (60 mg QD n = 5) was 2 (40.0) n (%), the “Platelet count decreased, Gr≥3” value (60 mg QD n = 5) was 0 n (%) and the “Protein in urine, All” value (60 mg QD n = 5) was 1 (20.0) n (%). For the same compound, the “Protein in urine, Gr≥3” value (60 mg QD n = 5) was 0 n (%), the “Vomiting, All” value (60 mg QD n = 5) was 1 (20.0) n (%) and the “Vomiting, Gr≥3” value (60 mg QD n = 5) was 1 (20.0) n (%). For the same compound, the “WBC decreased, All” value (60 mg QD n = 5) was 2 (40.0) n (%), the “WBC decreased, Gr≥3” value (60 mg QD n = 5) was 0 n (%) and the “ALT increased, All” value (80 mg QD n = 9) was 1 (11.1) n (%). The “ALT increased, Gr≥3” value (80 mg QD n = 9) was 0 n (%), the “AST increased, All” value (80 mg QD n = 9) was 2 (22.2) n (%) and the “AST increased, Gr≥3” value (80 mg QD n = 9) was 0 n (%). For the same compound, the “Abdominal distension, All” value (80 mg QD n = 9) was 3 (33.3) n (%), the “Abdominal distension, Gr≥3” value (80 mg QD n = 9) was 0 n (%) and the “Anemia (incl. hemoglobin decreased), All” value (80 mg QD n = 9) was 7 (77.8) n (%). The “Anemia (incl. hemoglobin decreased), Gr≥3” value (80 mg QD n = 9) was 3 (33.3) n (%), the “Appetite decreased, All” value (80 mg QD n = 9) was 3 (33.3) n (%) and the “Appetite decreased, Gr≥3” value (80 mg QD n = 9) was 0 n (%). For the same compound, the “Asthenia, All” value (80 mg QD n = 9) was 2 (22.2) n (%), the “Asthenia, Gr≥3” value (80 mg QD n = 9) was 0 n (%) and the “Blood bilirubin increased, All” value (80 mg QD n = 9) was 2 (22.2) n (%). For the same compound, the “Blood bilirubin increased, Gr≥3” value (80 mg QD n = 9) was 0 n (%), the “Blood creatinine increased, All” value (80 mg QD n = 9) was 2 (22.2) n (%) and the “Blood creatinine increased, Gr≥3” value (80 mg QD n = 9) was 0 n (%). The “Hypokalemia, All” value (80 mg QD n = 9) was 3 (33.3) n (%), the “Hypokalemia, Gr≥3” value (80 mg QD n = 9) was 0 n (%) and the “Hyponatremia, All” value (80 mg QD n = 9) was 1 (11.1) n (%). For the same compound, the “Hyponatremia, Gr≥3” value (80 mg QD n = 9) was 0 n (%), the “Nausea, All” value (80 mg QD n = 9) was 4 (44.4) n (%) and the “Nausea, Gr≥3” value (80 mg QD n = 9) was 0 n (%). The “Neutrophil count decreased, All” value (80 mg QD n = 9) was 4 (44.4) n (%), the “Neutrophil count decreased, Gr≥3” value (80 mg QD n = 9) was 1 (11.1) n (%) and the “Pain in extremity, All” value (80 mg QD n = 9) was 2 (22.2) n (%). The “Pain in extremity, Gr≥3” value (80 mg QD n = 9) was 0 n (%), the “Platelet count decreased, All” value (80 mg QD n = 9) was 4 (44.4) n (%) and the “Platelet count decreased, Gr≥3” value (80 mg QD n = 9) was 2 (22.2) n (%). The “Protein in urine, All” value (80 mg QD n = 9) was 0 n (%), the “Protein in urine, Gr≥3” value (80 mg QD n = 9) was 0 n (%) and the “Vomiting, All” value (80 mg QD n = 9) was 3 (33.3) n (%). The “Vomiting, Gr≥3” value (80 mg QD n = 9) was 1 (11.1) n (%), the “WBC decreased, All” value (80 mg QD n = 9) was 5 (55.6) n (%) and the “WBC decreased, Gr≥3” value (80 mg QD n = 9) was 1 (11.1) n (%). For the same compound, the “ALT increased, All” value (100 mg QD n = 20) was 5 (25.0) n (%), the “ALT increased, Gr≥3” value (100 mg QD n = 20) was 0 n (%) and the “AST increased, All” value (100 mg QD n = 20) was 4 (20.0) n (%). For the same compound, the “AST increased, Gr≥3” value (100 mg QD n = 20) was 1 (5.0) n (%), the “Abdominal distension, All” value (100 mg QD n = 20) was 0 n (%) and the “Abdominal distension, Gr≥3” value (100 mg QD n = 20) was 0 n (%). The “Anemia (incl. hemoglobin decreased), All” value (100 mg QD n = 20) was 11 (55.0) n (%), the “Anemia (incl. hemoglobin decreased), Gr≥3” value (100 mg QD n = 20) was 4 (20.0) n (%) and the “Appetite decreased, All” value (100 mg QD n = 20) was 5 (25.0) n (%). For the same compound, the “Appetite decreased, Gr≥3” value (100 mg QD n = 20) was 0 n (%), the “Asthenia, All” value (100 mg QD n = 20) was 5 (25.0) n (%) and the “Asthenia, Gr≥3” value (100 mg QD n = 20) was 0 n (%). The “Blood bilirubin increased, All” value (100 mg QD n = 20) was 3 (15.0) n (%), the “Blood bilirubin increased, Gr≥3” value (100 mg QD n = 20) was 0 n (%) and the “Blood creatinine increased, All” value (100 mg QD n = 20) was 2 (10.0) n (%). For the same compound, the “Blood creatinine increased, Gr≥3” value (100 mg QD n = 20) was 0 n (%), the “Hypokalemia, All” value (100 mg QD n = 20) was 0 n (%) and the “Hypokalemia, Gr≥3” value (100 mg QD n = 20) was 0 n (%). For the same compound, the “Hyponatremia, All” value (100 mg QD n = 20) was 2 (10.0) n (%), the “Hyponatremia, Gr≥3” value (100 mg QD n = 20) was 0 n (%) and the “Nausea, All” value (100 mg QD n = 20) was 4 (20.0) n (%). The “Nausea, Gr≥3” value (100 mg QD n = 20) was 0 n (%), the “Neutrophil count decreased, All” value (100 mg QD n = 20) was 5 (25.0) n (%) and the “Neutrophil count decreased, Gr≥3” value (100 mg QD n = 20) was 2 (10.0) n (%). The “Pain in extremity, All” value (100 mg QD n = 20) was 2 (10.0) n (%), the “Pain in extremity, Gr≥3” value (100 mg QD n = 20) was 0 n (%) and the “Platelet count decreased, All” value (100 mg QD n = 20) was 6 (30.0) n (%). For the same compound, the “Platelet count decreased, Gr≥3” value (100 mg QD n = 20) was 1 (5.0) n (%), the “Protein in urine, All” value (100 mg QD n = 20) was 2 (10.0) n (%) and the “Protein in urine, Gr≥3” value (100 mg QD n = 20) was 0 n (%). For the same compound, the “Vomiting, All” value (100 mg QD n = 20) was 5 (25.0) n (%), the “Vomiting, Gr≥3” value (100 mg QD n = 20) was 0 n (%) and the “WBC decreased, All” value (100 mg QD n = 20) was 9 (45.0) n (%). For the same compound, the “WBC decreased, Gr≥3” value (100 mg QD n = 20) was 1 (5.0) n (%), the “ALT increased, All” value (120 mg QD n = 4) was 2 (50.0) n (%) and the “ALT increased, Gr≥3” value (120 mg QD n = 4) was 1 (25.0) n (%). The “AST increased, All” value (120 mg QD n = 4) was 2 (50.0) n (%), the “AST increased, Gr≥3” value (120 mg QD n = 4) was 0 n (%) and the “Abdominal distension, All” value (120 mg QD n = 4) was 0 n (%). The “Abdominal distension, Gr≥3” value (120 mg QD n = 4) was 0 n (%), the “Anemia (incl. hemoglobin decreased), All” value (120 mg QD n = 4) was 3 (75.0) n (%) and the “Anemia (incl. hemoglobin decreased), Gr≥3” value (120 mg QD n = 4) was 1 (25.0) n (%). The “Appetite decreased, All” value (120 mg QD n = 4) was 1 (25.0) n (%), the “Appetite decreased, Gr≥3” value (120 mg QD n = 4) was 0 n (%) and the “Asthenia, All” value (120 mg QD n = 4) was 2 (50.0) n (%). For the same compound, the “Asthenia, Gr≥3” value (120 mg QD n = 4) was 0 n (%), the “Blood bilirubin increased, All” value (120 mg QD n = 4) was 2 (50.0) n (%) and the “Blood bilirubin increased, Gr≥3” value (120 mg QD n = 4) was 1 (25.0) n (%). The “Blood creatinine increased, All” value (120 mg QD n = 4) was 1 (25.0) n (%), the “Blood creatinine increased, Gr≥3” value (120 mg QD n = 4) was 0 n (%) and the “Hypokalemia, All” value (120 mg QD n = 4) was 0 n (%). For the same compound, the “Hypokalemia, Gr≥3” value (120 mg QD n = 4) was 0 n (%), the “Hyponatremia, All” value (120 mg QD n = 4) was 0 n (%) and the “Hyponatremia, Gr≥3” value (120 mg QD n = 4) was 0 n (%). For the same compound, the “Nausea, All” value (120 mg QD n = 4) was 1 (25.0) n (%), the “Nausea, Gr≥3” value (120 mg QD n = 4) was 0 n (%) and the “Neutrophil count decreased, All” value (120 mg QD n = 4) was 1 (25.0) n (%). For the same compound, the “Neutrophil count decreased, Gr≥3” value (120 mg QD n = 4) was 0 n (%) and the “Pain in extremity, All” value (120 mg QD n = 4) was 1 (25.0) n (%).
